The structures appear in SMILES notation.

The values that follow come from US6770133B2, “Stable crystal of thiazolidinedione derivative and process for producing the same” (Kyorin Pharmaceutical Co., Ltd., priority 2000, dated 2004).

For series [1] the following is noted: M. Nomura et al, Bioorg. Med. Chem. Lett., 9 (1999) 533-538; cited from earlier work.
Series [2] in a line: Thermal analysis (thermal stability of the crystals). The series is classed as physicochemical. The source says: Using the thermal analysis apparatus (Rigaku Denki; TAS-200), the thermal stability of the crystals were examined.
The nature of series [3]: Hygroscopicity of the crystals. Format: physicochemical.
Where [4] appears, read: thermal analysis apparatus Rigaku Denki TAS-200.

Turning to `COc1ccc(CC2SC(=O)NC2=O)cc1C(=O)NCc1ccc(C(F)(F)F)cc1` (stereo not drawn) [KRP-297, 5-[(2,4-dioxothiazolidin-5-yl)methyl]-2-methoxy-N-[[4-(trifluoromethyl)phenyl]methyl]benzamide], in series [1], the glucose-lowering activity result is reported as “very excellent glucose-lowering activity”.
In turn, `COc1ccc(CC2SC(=O)NC2=O)cc1C(=O)NCc1ccc(C(F)(F)F)cc1` (stereo not drawn) [conventional crystals, 5-[(2,4-dioxothiazolidin-5-yl)methyl]-2-methoxy-N-[[4-(trifluoromethyl)phenyl]methyl]benzamide, reference compound] had an endothermic peak in series [2] (setting [4]) of 186.3 °C.
For the molecule `COc1ccc(CC2SC(=O)NC2=O)cc1C(=O)NCc1ccc(C(F)(F)F)cc1` (stereo not drawn) [novel crystal, 5-[(2,4-dioxothiazolidin-5-yl)methyl]-2-methoxy-N-[[4-(trifluoromethyl)phenyl]methyl]benzamide], the “thermal stability compared with the conventional crystal” value in series [2] (conclusion from thermal analysis) is on record as “more thermally stable”. In series [2] (setting [4]), the endothermic peak turned out to be 196.2 °C and the “endothermic phenomena observed from (onset)” value turned out to be 194.8 °C. For the same molecule, the hygroscopicity entry in series [3] is recorded as “no hygroscopicity”.
